# Laboratory results: patent US20110262954A1, “SHUTTLE VECTOR BASED TRANSFORMATION SYSTEM FOR PYROCOCCUS FURIOSUS” (UNIVERSITAT REGENSBURG, priority 2010, published 2011)
# Test: stability of simvastatin at incubation temperature (inferred from growth inhibition)
# Conditions: 95° C. compared with 85° C.
smiles,measurement,value
CCC(C)(C)C(=O)O[C@H]1C[C@@H](C)C=C2C=C[C@H](C)[C@H](CC[C@@H]3C[C@@H](O)CC(=O)O3)[C@H]21 [simvastatin],stability of simvastatin,dramatically decreased
